Measured values: article PMC6104039 (Nature Communications, 2018)
Values joined by “and” are separate entries in the source; they are usually repeats but may differ in a detail not shown here. Equal values may be shown once.

Test system: adipose tissue
Experiment: Ceramide and SM species in epididymal adipose tissue
Type: in vivo, mice
Experimental: Male C57BL6/J mice were obtained from the Animal Resources Centre in Perth (WA, Australia). Mice were housed at 22 ± 1 °C with a controlled 12:12 h light-dark cycle and had ad libitum access to water and either chow (8% calories from fat) or HFD (45% calories from fat)[66] for 4–6 weeks. […] Treatment was commenced at the same time as mice were randomised to dietary groups. The experiments were approved by the UNSW animal care and ethics committee (ACEC 15/48B), and followed guidelines issued by the National Health and Medical Research Council of Australia.
Lipids were extracted from frozen tissue samples or cells using a two-phase procedure with methyl-tert-butyl ether (MTBE)/methanol/water (10:3:2.5, v/v/v)[67]. Frozen tissue samples (~20 mg) were homogenized in 0.2 mL methanol containing 0.01% butylated hydroxytoluene (BHT), using a Precellys 24 homogenizer and Cryolys cooling unit (Bertin Technologies) with CK14 (1.4-mm ceramic) beads. The homogenates were spiked with an internal standard mixture comprising 5 nmole 19:0/19:0 phosphatidylcholine and 2 nmole each of 17:0/17:0 phosphatidylethanolamine, 17:0/17:0 phosphatidylserine, 17:0/17:0 d5-diacylglycerol, 17:0/17:0 phosphatidylglycerol, 14:0/14:0/14:0/14:0 cardiolipin, 18:1/12:0 SM, 18:1/17:0 ceramide, 18:1/12:0 glucosylceramide, 18:1/12:0 lactosylceramide, 18:1/12:0 sulfatide (all from Avanti Polar Lipids, USA), and 17:0/17:0/17:0 TAG (Cayman Chemical, USA), then transferred to 10 mL screw cap glass tubes. The homogenization tubes containing beads were then washed with another 0.3 mL methanol, and this wash was combined with the first methanol extract, after which 1.7 mL MTBE was added and the samples were sonicated in an ice-cold sonicating water bath (Thermoline Scientific, Australia) for 30 min. Phase separation was induced by addition of 417 µL of mass spectrometry-grade water followed by vortexing and centrifugation at 1000 × g for 10 min. The upper organic phase was collected into 5 mL glass tubes. The lower phase was re-extracted by adding 1 mL MTBE, 300 μL methanol, and 250 μL water. The organic phases were combined in the 5 mL glass tubes and dried under vacuum in a Savant SC210 SpeedVac (Thermo Scientific), then reconstituted in 500 μL methanol and stored at −20 °C until analysis.
Lipidomic profiling was performed on a QExactive Plus mass spectrometer with heated electrospray ionization (HESI) probe and a Dionex UltiMate 2000 LC pump (Thermo Fisher Scientific). Extracts were resolved on a 2.1 × 100 mm Waters Acquity C18 UPLC column (1.7 µm […]), using a binary gradient in which mobile phase A consisted of acetonitrile:water (60:40), 10 mM ammonium formate, 0.1% formic acid; and mobile phase B was isopropanol:acetonitrile (90:10), 10 mM ammonium formate, 0.1% formic acid[68]. The flow rate was 260 µL/min and column oven 55 °C. Data was acquired in full scan/data-dependent MS^2 mode (full scan resolution 70,000 FWHM, scan range 400–1200 m/z). The ten most abundant ions in each cycle were subjected to MS^2 using an isolation window of 1.4 m/z, collision energy 30 eV, resolution 17,500, maximum integration time 110 ms and dynamic exclusion window 10 s. An exclusion list of background ions was used based on a solvent blank. LipidSearch v4.1.30 software (ThermoFisher Scientific) was used for chromatogram alignment, peak identification and integration. Each lipid peak was manually verified for column elution time and characteristic fragment ions. Data were then exported to an Excel spreadsheet for normalisation of each lipid to its class-specific internal standard, and lipid concentrations were calculated relative to the internal standard.

[1] = HFD + P053, individual values, raw data Fig 3l
[2] = HFD + P053, individual values, raw data Fig 3m

## C[C@@](N)(CO)CCc1ccc(OCc2ccc(Cl)c(Cl)c2)cc1 [P053, (S)-2-amino-4-(4-(3,4-dichlorobenzyloxy)phenyl)-2-methylbutan-1-ol]
[1]
  Ceramide 18:1/16:0 content of white adipose tissue: 7.201 and 8.054 and 16.149 and 4.934 and 4.539 and 15.378 and 9.982 and 4.818 and 11.537 and 7.369
  Ceramide 18:1/18:0 content of white adipose tissue: 2.978 and 2.646 and 5.343 and 1.908 and 1.464 and 4.498 and 3.784 and 2.039 and 3.490 and 2.759
  Ceramide 18:1/20:0 content of white adipose tissue: 1.960 and 1.699 and 2.742 and 0.969 and 1.134 and 2.311 and 2.304 and 0.962 and 2.130 and 1.825
  Ceramide 18:1/22:0 content of white adipose tissue: 2.875 and 3.855 and 6.655 and 3.344 and 2.629 and 5.839 and 6.468 and 2.833 and 3.815 and 4.292
  Ceramide 18:1/24:0 content of white adipose tissue: 2.389 and 3.918 and 5.983 and 4.215 and 2.773 and 8.001 and 8.331 and 4.355 and 4.168 and 5.733
  Ceramide 18:1/24:1 content of white adipose tissue: 6.096 and 8.629 and 13.174 and 7.744 and 4.866 and 14.789 and 13.116 and 7.511 and 9.181 and 8.543
  Ceramide 18:2/18:0 content of white adipose tissue: 1.491 and 1.389 and 1.897 and 0.793 and 0.611 and 2.474 and 2.012 and 0.838 and 2.141 and 1.309
  Ceramide 18:2/22:0 content of white adipose tissue: 1.850 and 2.082 and 3.075 and 1.861 and 1.560 and 3.228 and 3.861 and 1.939 and 2.443 and 2.309
  Ceramide 18:2/24:0 content of white adipose tissue: 2.470 and 3.270 and 4.398 and 3.698 and 2.656 and 6.741 and 6.951 and 4.253 and 4.048 and 5.078
  Ceramide 18:2/24:1 content of white adipose tissue: 3.997 and 4.831 and 5.433 and 4.596 and 3.171 and 8.097 and 7.476 and 4.878 and 5.777 and 4.939
[2]
  SM 34:1 content of white adipose tissue: 138.16 and 152.76 and 183.91 and 125.06 and 78.40 and 408.02 and 164.42 and 164.75 and 189.26 and 180.12
  SM 34:2 content of white adipose tissue: 3.94 and 4.36 and 5.23 and 3.24 and 2.75 and 11.91 and 3.96 and 4.10 and 5.05 and 4.63
  SM 36:1 content of white adipose tissue: 30.80 and 33.18 and 60.02 and 24.06 and 21.10 and 82.70 and 34.64 and 35.42 and 37.81 and 37.83
  SM 36:2 content of white adipose tissue: 13.65 and 13.63 and 9.26 and 9.31 and 4.59 and 33.15 and 15.13 and 9.69 and 16.44 and 14.20
  SM 38:1 content of white adipose tissue: 14.96 and 15.80 and 25.22 and 10.28 and 10.56 and 34.10 and 16.91 and 15.85 and 15.88 and 17.49
  SM 38:2 content of white adipose tissue: 5.67 and 4.70 and 6.95 and 2.89 and 2.82 and 9.23 and 2.88 and 2.78 and 5.06 and 4.54
  SM 40:1 content of white adipose tissue: 19.38 and 29.35 and 36.60 and 23.08 and 16.71 and 83.76 and 47.96 and 37.67 and 36.07 and 44.84
  SM 40:2 content of white adipose tissue: 7.44 and 8.09 and 11.71 and 6.74 and 5.23 and 19.76 and 11.68 and 7.96 and 9.66 and 10.63
  SM 42:1 content of white adipose tissue: 8.78 and 13.45 and 15.34 and 10.58 and 7.52 and 42.80 and 18.82 and 17.05 and 15.81 and 20.73
  SM 42:2 content of white adipose tissue: 28.15 and 38.15 and 51.68 and 31.28 and 20.55 and 119.48 and 50.63 and 47.22 and 48.80 and 50.51
  SM 42:3 content of white adipose tissue: 9.88 and 12.29 and 14.77 and 10.62 and 6.46 and 36.48 and 16.98 and 13.87 and 16.08 and 14.63
Chow or HFD
  C18 ceramide or SM and other ceramide or SM species in adipose tissue: did not significantly impact
